Source: publication PMC8971525, “A New Strategy for Multitarget Drug Discovery/Repositioning Through the Identification of Similar 3D Amino Acid Patterns Among Proteins Structures: The Case of Tafluprost and its Effects on Cardiac Ion Channels” (Frontiers in Pharmacology, 2022)

What was measured:
TASK-1 = biological target: T1, TASK-1 (Homo sapiens, UniProt O14649); assay: two-electrode voltage clamp in Xenopus oocytes, block of outward current; assay type: cell-based
T1 construct: gene KCNK3; human TASK-1 (KCNK3, NM_002246) cRNA expressed in Xenopus laevis oocytes

NaV1.5 = biological target: T2, NaV1.5 (Homo sapiens, UniProt Q14524); assay: two-electrode voltage clamp in Xenopus oocytes, block of inward current; assay type: cell-based
T2 construct: gene SCN5A; human Nav1.5 (hH1, M77235) cRNA expressed in Xenopus laevis oocytes
T2 sequence (Q14524 whole entry): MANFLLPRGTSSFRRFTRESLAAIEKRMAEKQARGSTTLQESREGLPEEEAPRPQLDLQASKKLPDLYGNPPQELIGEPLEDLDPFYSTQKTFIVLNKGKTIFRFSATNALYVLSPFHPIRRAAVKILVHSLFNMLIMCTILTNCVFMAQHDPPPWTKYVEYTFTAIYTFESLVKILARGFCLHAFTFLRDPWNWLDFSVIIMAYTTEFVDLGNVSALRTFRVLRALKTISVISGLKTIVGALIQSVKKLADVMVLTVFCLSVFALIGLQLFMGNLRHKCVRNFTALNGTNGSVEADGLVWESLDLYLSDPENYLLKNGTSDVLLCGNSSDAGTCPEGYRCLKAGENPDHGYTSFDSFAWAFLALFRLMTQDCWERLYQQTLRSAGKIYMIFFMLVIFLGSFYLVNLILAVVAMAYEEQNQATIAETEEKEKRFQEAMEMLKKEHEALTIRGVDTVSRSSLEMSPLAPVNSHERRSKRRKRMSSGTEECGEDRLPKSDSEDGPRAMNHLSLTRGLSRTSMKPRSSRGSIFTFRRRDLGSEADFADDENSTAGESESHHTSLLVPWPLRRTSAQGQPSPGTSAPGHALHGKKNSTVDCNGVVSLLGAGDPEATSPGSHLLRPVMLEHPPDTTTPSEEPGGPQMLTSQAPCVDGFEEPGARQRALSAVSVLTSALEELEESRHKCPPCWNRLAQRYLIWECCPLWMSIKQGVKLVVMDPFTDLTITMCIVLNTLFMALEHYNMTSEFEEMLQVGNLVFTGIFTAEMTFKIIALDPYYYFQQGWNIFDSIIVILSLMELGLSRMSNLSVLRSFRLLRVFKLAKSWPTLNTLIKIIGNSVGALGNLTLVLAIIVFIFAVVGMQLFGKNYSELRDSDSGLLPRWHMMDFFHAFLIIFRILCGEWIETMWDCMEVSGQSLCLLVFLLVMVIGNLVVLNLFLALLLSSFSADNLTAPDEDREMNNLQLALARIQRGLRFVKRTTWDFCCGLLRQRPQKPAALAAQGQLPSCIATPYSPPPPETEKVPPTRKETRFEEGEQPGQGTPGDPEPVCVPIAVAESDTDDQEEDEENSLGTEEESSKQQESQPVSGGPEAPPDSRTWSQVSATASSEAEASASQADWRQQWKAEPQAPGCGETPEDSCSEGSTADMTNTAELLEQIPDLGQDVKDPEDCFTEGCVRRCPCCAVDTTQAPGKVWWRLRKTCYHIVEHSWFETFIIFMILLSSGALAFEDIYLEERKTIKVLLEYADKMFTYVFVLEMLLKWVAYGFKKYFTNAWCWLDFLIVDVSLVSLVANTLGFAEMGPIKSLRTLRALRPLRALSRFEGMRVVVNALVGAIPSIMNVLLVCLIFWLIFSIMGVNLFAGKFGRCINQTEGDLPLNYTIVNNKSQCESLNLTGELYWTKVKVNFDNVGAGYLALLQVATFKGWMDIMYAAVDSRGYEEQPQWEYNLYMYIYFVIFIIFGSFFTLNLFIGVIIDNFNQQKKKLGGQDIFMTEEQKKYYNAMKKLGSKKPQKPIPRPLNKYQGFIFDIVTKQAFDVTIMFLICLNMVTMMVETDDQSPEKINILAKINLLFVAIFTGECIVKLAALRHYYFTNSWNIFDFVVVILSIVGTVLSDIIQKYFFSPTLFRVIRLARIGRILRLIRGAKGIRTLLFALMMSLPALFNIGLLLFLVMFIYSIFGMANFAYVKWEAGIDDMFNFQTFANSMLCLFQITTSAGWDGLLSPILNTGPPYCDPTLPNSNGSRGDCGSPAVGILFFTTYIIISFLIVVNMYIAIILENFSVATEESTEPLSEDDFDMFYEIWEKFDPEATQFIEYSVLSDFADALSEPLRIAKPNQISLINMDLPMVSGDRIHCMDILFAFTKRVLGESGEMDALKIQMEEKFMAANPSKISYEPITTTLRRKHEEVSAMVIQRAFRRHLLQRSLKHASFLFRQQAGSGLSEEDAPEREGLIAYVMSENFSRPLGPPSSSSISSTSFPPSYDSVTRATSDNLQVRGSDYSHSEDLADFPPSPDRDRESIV

T1 sequence (O14649 whole entry): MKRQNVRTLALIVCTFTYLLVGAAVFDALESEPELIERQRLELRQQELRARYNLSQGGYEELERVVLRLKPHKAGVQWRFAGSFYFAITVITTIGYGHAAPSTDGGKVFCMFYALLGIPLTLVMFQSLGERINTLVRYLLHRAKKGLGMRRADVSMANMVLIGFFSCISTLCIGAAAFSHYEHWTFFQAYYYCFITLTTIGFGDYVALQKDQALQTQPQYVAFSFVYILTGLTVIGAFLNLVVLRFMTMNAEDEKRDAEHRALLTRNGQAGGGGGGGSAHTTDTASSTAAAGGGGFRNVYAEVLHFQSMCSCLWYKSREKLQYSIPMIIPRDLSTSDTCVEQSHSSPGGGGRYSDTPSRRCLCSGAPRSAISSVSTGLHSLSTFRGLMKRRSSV

Compound: CC(C)OC(=O)CCC/C=C\C[C@@H]1[C@@H](/C=C/C(F)(F)COc2ccccc2)[C@H](O)C[C@@H]1O [tafluprost]
- EC50 (TASK-1): 0.186 ± 0.04 µM
- IC50 (NaV1.5): ~76 µM
